≈ marks a conversion by molar mass, not a printed value. Where two headings read alike, the source gives them in different places.
Legend:
[1] = Aqueous solubility (laser nephelometry); assay type: physicochemical; settings: for solubility at 30 min: aqueous assay buffer with 1% DMSO, kinetic from dmso stock, 30 minute incubation at 25° C.
Experimental: Test compounds prepared in DMSO were screened in duplicate over a range of concentrations (1.6-100 ug/mL) in different aqueous media (for example a pH6.5 buffers which are relevant to the stomach and upper regions of the small intestine and therefore important when predicting the amount of drug likely to be in solution following oral administration). Test compounds were serially diluted in 100% DMSO ranging from 10-0.16 mg/mL. These titrated DMSO stocks were then further diluted 1:100 with assay buffer and added to test plates (UV Star Griener 384 well plates), maintaining the DMSO concentration at 1%.

1b (BK) NS5BΔ21 = biological target: T1, 1b (BK) NS5BΔ21 (Hepatitis C virus genotype 1b, UniProt P26663); assay: HCV Polymerase Inhibition Assay; assay type: biochemical; settings: NS5B G1b (IC50 μM), genotype 1b polymerase
T1 construct: 100 nM, 1b (BK) NS5BΔ21
Experimental: HCV polymerase reactions were carried out using a modified method of Howe et al., Antimicrobial Agents and Chemotherapy 2004 48(12): 4813-4821. Reactions contained a final concentration of, 0.5% DMSO, 100 nM, 1b (BK) NS5BΔ21, 20 mM Tris-HCl pH 7.5, 5 mM MgCl2, 5 mM MnCl2, 3 mM DTT, 0.05% BSA, 0.2 U/μL RNasin, 10 μg/mL Poly(rC) template, GTP (at Km) and 0.05 μCi/μL ^33P-GTP in a total reaction volume of 50 μL. Compounds were tested in a three fold dilution series, for example starting from 50 μM. Reactions were initiated with the addition of GTP and terminated after 90 min with 50 μL ice cold 0.2 M EDTA. Terminated reactions were transferred to DEAE 96-well filter plates, unincorporated nucleotides washed from the filters and 50 μL scintillation fluid added prior to reading on a scintillation counter. The compound concentration that reduced ^33P-GTP incorporation by 50% (IC50) was calculated using non-linear regression.

[2] = Cytotoxicity analysis (MTT); assay type: cell-based; settings: genotype 1b replicon cells, three days, read-out: G1b (CC50 μM)
Experimental: Cytotoxicity of compounds against genotype 1b replicon cells was determined via metabolism of the vital dye 3-(4,5-dimethylthiaxol-2-yl)-2,5-diphenyltetrazolium bromide (MTT, for example see Watanabe et al., Journal of Virological Methods 1994 48:257-265). Plates were prepared as described for the HCV Replicon assay and cytotoxicity of the test article was evaluated after three days. MTT was added to assay plates followed by three hour incubation at 37° C. Wells were aspirated to dryness and the formazan dye dissolved by the addition of isopropanol. Absorbance values were read at 540/690 nm). The compound concentration that reduced cell viability by 50% (CC50) was calculated using non-linear regression.

[3] = test system: subgenomic genotype 1a (H77) replicon cell line; assay: HCV replicon assay, genotype 1a (Renilla luciferase); assay type: cell-based; settings: Hepatitis C virus; genotype 1a replicon; read-out: G1a (EC50 μM)
Experimental: (§1) A genotype 1b (Con 1) subgenomic replicon cell line based on Blight et al., Science 2000 290: 1972-1974, modified to express a Renilla luciferase reporter gene was used to assess antiviral activity of test compounds. Cell cultures were maintained in a sub-confluent state in DMEM with glutamine, 10% heat-inactivated foetal bovine serum (FBS) and G418 (Geneticin®).
(§2) For assay, cells were seeded at a density of 7000 cells/well into 96 well tissue culture trays in culture media lacking G418. Compounds were tested in a three fold dilution series, for example starting from 50 uM. After 72 hours incubation at 37° C. and 5% CO2, Renilla luciferase activity was quantified via the Promega Renilla Luciferase or Renilla-Glo™ Luciferase Assay Systems (Promega corporation. The same method was employed for replicon assays using subgenomic genotype 1a (H77) and 2a (JFH-1) replicon cell lines with a seeding cell density of 5000 cells/well for the 2a cell lines.
(§3) The compound concentration that reduced luciferase activity by 50% (EC50) was calculated using non-linear regression.

[4] = test system: subgenomic genotype 2a (JFH-1) replicon cell line; assay: HCV replicon assay, genotype 2a (Renilla luciferase); assay type: cell-based; settings: Hepatitis C virus; genotype 2a replicon; read-out: G2a (EC50 μM)
Experimental: as §1, §2, §3

[5] = test system: genotype 1b (Con 1) subgenomic replicon cell line; assay: HCV replicon assay, genotype 1b (Renilla luciferase); assay type: cell-based; settings: Hepatitis C virus; genotype 1b replicon; read-out: G1b (EC50 μM)
Experimental: as §1, §2, §3

T1 sequence (P26663 2420-2989, stated change not applied): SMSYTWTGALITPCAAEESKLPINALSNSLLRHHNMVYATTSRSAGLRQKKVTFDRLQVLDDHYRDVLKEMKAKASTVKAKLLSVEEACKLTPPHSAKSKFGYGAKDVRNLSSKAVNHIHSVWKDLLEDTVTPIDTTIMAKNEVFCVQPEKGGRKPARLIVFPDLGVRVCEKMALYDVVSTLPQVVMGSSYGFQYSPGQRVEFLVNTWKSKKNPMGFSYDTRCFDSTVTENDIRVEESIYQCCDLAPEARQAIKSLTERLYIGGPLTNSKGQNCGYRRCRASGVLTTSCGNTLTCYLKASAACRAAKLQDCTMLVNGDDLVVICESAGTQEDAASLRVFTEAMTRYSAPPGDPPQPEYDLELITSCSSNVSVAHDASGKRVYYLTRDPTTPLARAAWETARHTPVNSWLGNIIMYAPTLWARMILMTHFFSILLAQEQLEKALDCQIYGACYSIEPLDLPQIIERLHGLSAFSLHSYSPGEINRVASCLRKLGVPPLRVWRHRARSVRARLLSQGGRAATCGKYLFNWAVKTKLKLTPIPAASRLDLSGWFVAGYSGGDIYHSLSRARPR

## CCN(c1cc2nn(-c3ccc(C)nc3)c(C(=O)NC)c2cc1C1CC1)S(C)(=O)=O [Compound A, 5-Cyclopropyl-6-[ethyl(methylsulfonyl)amino]-N-methyl-2-(6-methylpyridin-3-yl)-2H-indazole-3-carboxamide, reference compound]
[1]; aqueous buffer, pH 6.5, 1% DMSO, read-out: Solubility pH 6.5
  solubility at 30 min: 6.3 to 12.5 µg/mL (≈ 14.7 to 29.2 µM)
[1]; simulated gastric fluid, pH 2, 1% DMSO, read-out: Solubility pH 2
  solubility at 30 min: < 1.6 µg/mL
[1]; at both pH2 and pH 6.5
  solubility in words: very poorly soluble
1b (BK) NS5BΔ21
  IC50: 3.36 µM
[2]
  CC50 at 3 days: > 50 µM
[3]
  EC50: 3.17 µM
[4]
  EC50: 3.59 µM
[5]
  EC50: 0.774 µM

— patent US8785478B2, “Viral polymerase inhibitors” (Biota Scientific Management Pty Ltd, priority 2012, dated 2014)
